{"source": "patent US8153809B2", "about": "“Dihydropyridone ureas as P2X7 modulators” (Roche Palo Alto LLC, priority 2008, dated 2012)", "data": [{"biological_target": "T1, P2X7 (UniProt Q99572)", "T1 sequence (Q99572 1-595)": "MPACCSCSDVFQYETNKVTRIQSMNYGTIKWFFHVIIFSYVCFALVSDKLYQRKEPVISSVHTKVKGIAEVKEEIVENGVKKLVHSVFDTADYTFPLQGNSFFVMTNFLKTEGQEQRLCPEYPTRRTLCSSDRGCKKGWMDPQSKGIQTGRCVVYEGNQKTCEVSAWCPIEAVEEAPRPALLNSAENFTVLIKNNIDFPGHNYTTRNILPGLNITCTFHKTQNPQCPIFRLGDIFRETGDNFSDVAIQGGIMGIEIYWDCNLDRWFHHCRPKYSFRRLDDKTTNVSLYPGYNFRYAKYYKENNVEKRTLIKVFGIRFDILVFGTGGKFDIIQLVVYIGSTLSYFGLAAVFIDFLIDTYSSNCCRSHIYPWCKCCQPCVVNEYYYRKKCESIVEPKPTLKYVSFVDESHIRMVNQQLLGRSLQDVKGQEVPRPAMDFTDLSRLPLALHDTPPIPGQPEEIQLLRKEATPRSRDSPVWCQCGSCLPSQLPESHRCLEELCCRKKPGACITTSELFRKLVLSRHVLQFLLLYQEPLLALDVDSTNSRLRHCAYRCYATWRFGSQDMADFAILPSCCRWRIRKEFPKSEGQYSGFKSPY", "test": "pIC50 values for P2X7 (Table 1)", "assay_type": "cell-based", "how_it_was_run": "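Fluo-3-loaded 1321N1 cells expressing human P2X7 or HEK293 cells expressing rat P2X7, preincubated 20 min at room temperature with antagonist in HBSS/Hepes/probenecid buffer with 2 mM CaCl2. BzATP agonist at 100 μM final (human) or 5 μM final (rat); fluorescence read 5 min, peak normalized to 5 μM ionomycin response.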", "values": [{"smiles": "Cc1cc2c(cc1NC(=O)N1C=CC(=O)C[C@H]1c1ccc(F)cc1)OCCN2C", "note": "[Compound 143, (S)-2-(4-Fluoro-phenyl)-4-oxo-3,4-dihydro-2H-pyridine-1-carboxylic acid (4,6-dimethyl-3,4-dihydro-2H-benzo[1,4]oxazin-7-yl)-amide]", "pIC50": 7.825}, {"smiles": "Cc1c(CC(=O)OC(C)(C)C)cccc1NC(=O)N1C=CC(=O)C[C@H]1c1ccc(F)cc1", "note": "[Compound 144, (3-{[(S)-2-(4-Fluoro-phenyl)-4-oxo-3,4-dihydro-2H-pyridine-1-carbonyl]amino}-2-methyl-phenyl)-acetic acid tert-butyl ester]", "pIC50": 6.215}, {"smiles": "Cc1nn(C)c2cc(NC(=O)N3C=CC(=O)C[C@H]3c3ccc(F)cc3)ccc12", "note": "[Compound 145, (S)-2-(4-Fluoro-phenyl)-4-oxo-3,4-dihydro-2H-pyridine-1-carboxylic acid (1,3-dimethyl-1H-indazol-6-yl)-amide]", "pIC50": 6.535}, {"smiles": "Cc1c2ccc(NC(=O)N3C=CC(=O)C[C@H]3c3ccc(F)cc3)cc2nn1C", "note": "[Compound 146, (S)-2-(4-Fluoro-phenyl)-4-oxo-3,4-dihydro-2H-pyridine-1-carboxylic acid (2,3-dimethyl-2H-indazol-6-yl)-amide]", "pIC50": 5.615}, {"smiles": "Cn1cc2ccc(NC(=O)N3C=CC(=O)C[C@H]3c3cccc(F)c3)cc2n1", "note": "[Compound 147, (S)-2-(3-Fluoro-phenyl)-4-oxo-3,4-dihydro-2H-pyridine-1-carbxoylic acid (2-methyl-2H-indazol-6-yl)-amide]", "pIC50": 5.505}, {"smiles": "Cn1cc2cc(NC(=O)N3C=CC(=O)C[C@H]3c3ccc(F)cc3)ccc2n1", "note": "[Compound 148, (S)-2-(4-Fluoro-phenyl)-4-oxo-3,4-dihydro-2H-pyridine-1-carboxylic acid (2-methyl-2H-indazol-5-yl)-amide]", "pIC50": 6.87}, {"smiles": "CCc1c(NC(=O)N2C=CC(=O)C[C@H]2c2ccc(F)cc2)ccc2ncccc12", "note": "[Compound 149, (S)-2-(4-Fluoro-phenyl)-4-oxo-3,4-dihydro-2H-pyridine-1-carboxylic acid (5-ethyl-quinolin-6-yl)-amide]", "pIC50": 8.445}, {"smiles": "Cc1c(CCO)cccc1NC(=O)N1C=CC(=O)C[C@H]1c1ccc(F)cc1", "note": "[Compound 150, (S)-2-(4-Fluoro-phenyl)-4-oxo-3,4-dihydro-2H-pyridine-1-carboxylic acid [3-(2-hydroxy-ethyl)-2-methyl-phenyl]-amide]", "pIC50": 7.835}, {"smiles": "Cc1c2ccc(NC(=O)N3C=CC(=O)C[C@H]3c3ccc(F)cc3)c(Br)c2nn1C", "note": "[Compound 151, (S)-2-(4-Fluoro-phenyl)-4-oxo-3,4-dihydro-2H-pyridine-1-carboxylic acid (7-bromo-2,3-dimethyl-2H-indazol-6-yl)-amide]", "pIC50": 5.975}, {"smiles": "O=C1C=CN(C(=O)Nc2cccc3c2CCO3)[C@H](c2ccc(F)cc2)C1", "note": "[Compound 152, (S)-2-(4-Fluoro-phenyl)-4-oxo-3,4-dihydro-2H-pyridine-1-carboxylic acid (2,3-dihydro-benzofuran-4-yl)-amide]", "pIC50": 7.355}, {"smiles": "CCc1cc2ncccc2cc1NC(=O)N1C=CC(=O)C[C@H]1c1ccc(F)cc1", "note": "[Compound 153, (S)-2-(4-Fluoro-phenyl)-4-oxo-3,4-dihydro-2H-pyridine-1-carboxylic acid (7-ethyl-quinolin-6-yl)-amide]", "pIC50": 7.85}, {"smiles": "O=C1C=CN(C(=O)Nc2cccc3ncccc23)[C@H](c2ccc(F)cc2)C1", "note": "[Compound 154, (S)-2-(4-Fluoro-phenyl)-4-oxo-3,4-dihydro-2H-pyridine-1-carboxylic acid quinolin-5-ylamide]", "pIC50": 8.64}, {"smiles": "Cc1cc(F)c(F)cc1NC(=O)N1C=CC(=O)C[C@H]1c1ccc(F)cc1", "note": "[Compound 155, (S)-2-(4-Fluoro-phenyl)-4-oxo-3,4-dihydro-2H-pyridine-1-carboxylic acid (4,5-difluoro-2-methyl-phenyl)-amide]", "pIC50": 7.12}]}]}
